± gives the standard deviation of the averaged measurements.
Assays:
Assay in all cases: cell viability, percent of DMSO control (CellTiter-Glo); higher = more viable cells
Details in all cases: 72 h
[1] = system: DFTD cell line T1 (06/2887)
Description: (§1)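 Eight-point dose titration of 41 screen hits in triplicate wells on four Tasmanian devil DFTD tumour cell lines (T1-T4) and devil fibroblasts, 384-well plates. Viability was read by CellTiter-Glo (ATP) after 72 h at 37 °C. Percent of control per plate: DMSO wells = 100%, positive-control wells = 0%.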

[2] = system: DFTD cell line T2 (05/2569)
Description: as §1

[3] = system: DFTD cell line T3 (06/0368)
Description: as §1

[4] = system: DFTD cell line T4 (07/0192)
Description: as §1

C=CC(=O)N1CCC(Oc2cc3c(Nc4ccc(Cl)c(Cl)c4F)ncnc3cc2OC)CC1 [Poziotinib (HM781-36B)]
cell viability [%]
Details | 0.00617 µM | 0.0185 µM | 0.0556 µM | 0.166667 µM | 0.5 µM | 1.5 µM | 4.5 µM | 13.5 µM
[1] | 56.7 ± 5.5 | 29.4 ± 11 | 24.3 ± 1.4 | 29.3 ± 5.8 | 28 ± 19 | 24.4 ± 3.6 | 26.8 ± 5.1 | 26.6 ± 9.2
[2] | 87.7 ± 9.9 | 49.6 ± 13 | 41.5 ± 0.83 | 38.3 ± 5.7 | 39 ± 20 | 26.8 ± 2.8 | 22.5 ± 6 | 17 ± 10
[3] | 87 ± 3.7 | 52.5 ± 19 | 44 ± 6.7 | 44.6 ± 10 | 42.2 ± 18 | 30.8 ± 4.9 | 35.9 ± 7.9 | 33 ± 9.1
[4] | 88.7 ± 9.5 | 44.9 ± 16 | 30.6 ± 1.8 | 26.5 ± 8.9 | 27.4 ± 18 | 27.1 ± 9.2 | 22.8 ± 8.3 | 21.4 ± 9.4

O=C(/C=C/c1cccc(S(=O)(=O)Nc2ccccc2)c1)NO [RLM 2-89]
cell viability [%]
Details | 0.000617 µM | 0.00185 µM | 0.00556 µM | 0.0167 µM | 0.05 µM | 0.15 µM | 0.45 µM | 1.35 µM
[1] | 130 ± 44 | 115 ± 22 | 116 ± 43 | 113 ± 26 | 114 ± 12 | 52.6 ± 16 | 20.5 ± 14 | 17.4 ± 3.4
[2] | 110 ± 43 | 96.3 ± 17 | 118 ± 48 | 106 ± 23 | 125 ± 3.9 | 82.3 ± 13 | 28.8 ± 9.1 | 20.7 ± 7.2
[3] | 120 ± 46 | 103 ± 20 | 116 ± 57 | 121 ± 29 | 128 ± 20 | 77.7 ± 10 | 32.4 ± 11 | 28.9 ± 0.38
[4] | 121 ± 34 | 109 ± 17 | 87.9 ± 45 | 125 ± 25 | 123 ± 42 | 83.5 ± 18 | 38.1 ± 11 | 19.1 ± 3

C=CC(=O)Nc1cccc(Nc2nc(Nc3ccc(N4CCN(C(C)=O)CC4)cc3OC)ncc2C(F)(F)F)c1 [Rociletinib (CO-1686, AVL-301)]
cell viability [%]
Details | 0.00617 µM | 0.0185 µM | 0.0556 µM | 0.166667 µM | 0.5 µM | 1.5 µM | 4.5 µM | 13.5 µM
[1] | 121 ± 3 | 114 ± 49 | 113 ± 9.9 | 92.4 ± 24 | 80.6 ± 8.4 | 41.4 ± 18 | 16.9 ± 8.2 | 4.81 ± 0.32
[2] | 119 ± 8.6 | 108 ± 48 | 108 ± 22 | 104 ± 15 | 86.5 ± 9.8 | 63.1 ± 14 | 33.7 ± 7.7 | 12 ± 3.7
[3] | 127 ± 12 | 113 ± 31 | 94.5 ± 20 | 99.1 ± 9.2 | 101 ± 18 | 58.2 ± 14 | 40.4 ± 8.9 | 17.4 ± 9.4
[4] | 116 ± 5.8 | 101 ± 9.1 | 102 ± 31 | 89.6 ± 5.2 | 88.6 ± 5.1 | 56.6 ± 12 | 32.4 ± 13 | 11.9 ± 5

Cn1cnc2c(F)c(Nc3ccc(Br)cc3Cl)c(C(=O)NOCCO)cc21.O=S(=O)(O)O [Selumetinib (AZD6244)]
cell viability [%]
Details | 0.00617 µM | 0.0185 µM | 0.0556 µM | 0.166667 µM | 0.5 µM | 1.5 µM | 4.5 µM | 13.5 µM
[1] | 104 ± 13 | 100 ± 46 | 104 ± 38 | 57 ± 15 | 41 ± 15 | 35.4 ± 10 | 29.1 ± 12 | 33.4 ± 13
[2] | 98.8 ± 17 | 102 ± 33 | 108 ± 44 | 63 ± 17 | 51.7 ± 10 | 39.3 ± 12 | 35.4 ± 14 | 35.8 ± 11
[3] | 102 ± 24 | 112 ± 26 | 99.1 ± 16 | 75.3 ± 18 | 63.7 ± 9.9 | 56.9 ± 8 | 42.5 ± 6.7 | 50.7 ± 17
[4] | 89 ± 6.7 | 105 ± 26 | 88 ± 22 | 62.8 ± 3.8 | 56.2 ± 8.1 | 46 ± 3.4 | 35 ± 1.9 | 31.1 ± 8.4

CC(C)(C)P(=NC(=S)NCCCO)(N1CCCCCC1)N1CCCCCC1 [T0503-0280]
cell viability [%]
Details | 0.00617 µM | 0.0185 µM | 0.0556 µM | 0.166667 µM | 0.5 µM | 1.5 µM | 4.5 µM | 13.5 µM
[1] | 94.1 ± 27 | 106 ± 11 | 125 ± 34 | 116 ± 20 | 96.1 ± 16 | 50.7 ± 1.9 | 24.5 ± 5.4 | 19.9 ± 4.7
[2] | 107 ± 2.3 | 87.6 ± 8.5 | 127 ± 32 | 115 ± 23 | 92.6 ± 16 | 68.7 ± 3 | 14.8 ± 7.5 | 27.7 ± 5.1
[3] | 106 ± 36 | 83.3 ± 13 | 134 ± 33 | 118 ± 33 | 99.4 ± 22 | 66 ± 7.1 | 17.6 ± 7.5 | 16.1 ± 3.9
[4] | 118 ± 31 | 85.2 ± 29 | 129 ± 32 | 105 ± 22 | 112 ± 28 | 38.2 ± 8.4 | 11.4 ± 5.1 | 30.9 ± 5.5

CCS(=O)(=O)c1cccc(-c2cc(C(=O)NC3CCN(C)CC3)c(C)c3[nH]c4ncc(C)cc4c23)c1 [TAK901]
cell viability [%]
Details | 0.00617 µM | 0.0185 µM | 0.0556 µM | 0.166667 µM | 0.5 µM | 1.5 µM | 4.5 µM | 13.5 µM
[1] | 104 ± 3.3 | 109 ± 4.1 | 113 ± 30 | 121 ± 45 | 138 ± 43 | 59.4 ± 16 | 12 ± 12 | -4.29 ± 16
[2] | 125 ± 23 | 103 ± 6.1 | 127 ± 49 | 111 ± 46 | 126 ± 57 | 42.4 ± 14 | 1.18 ± 6.5 | -1.98 ± 9.4
[3] | 106 ± 16 | 105 ± 5.8 | 95.9 ± 19 | 98.5 ± 24 | 104 ± 39 | 42.6 ± 8.9 | 4.34 ± 1.3 | -3.65 ± 7.5
[4] | 99.7 ± 11 | 109 ± 12 | 103 ± 14 | 104 ± 27 | 96.7 ± 34 | 26.5 ± 13 | -1.88 ± 6.3 | -6.14 ± 11

COc1cc2ncnc(Nc3ccc(O)c(Br)c3)c2cc1OC [WHI-P154]
cell viability [%]
Details | 0.00617 µM | 0.0185 µM | 0.0556 µM | 0.166667 µM | 0.5 µM | 1.5 µM | 4.5 µM | 13.5 µM
[1] | 90.9 ± 16 | 125 ± 11 | 103 ± 4.3 | 86 ± 8.7 | 46.2 ± 6.1 | 36.9 ± 1.8 | 25 ± 6.5 | 21.8 ± 7.4
[2] | 85 ± 18 | 116 ± 23 | 105 ± 11 | 95.7 ± 33 | 58.1 ± 7.2 | 45.3 ± 6.6 | 32.1 ± 2.2 | 20.6 ± 1.1
[3] | 76.9 ± 11 | 125 ± 22 | 98.1 ± 12 | 92 ± 8.6 | 67.7 ± 12 | 55.6 ± 19 | 40.4 ± 8.2 | 32.8 ± 2.4
[4] | 85.6 ± 27 | 134 ± 11 | 115 ± 8.3 | 84.5 ± 18 | 69 ± 21 | 42.4 ± 13 | 30.6 ± 2.3 | 19.7 ± 3

COCCn1c2c([n+](Cc3cnccn3)c1C)C(=O)c1ccccc1C2=O.[Br-] [YM155]
cell viability [%]
Details | 0.00617 µM | 0.0185 µM | 0.0556 µM | 0.166667 µM | 0.5 µM | 1.5 µM | 4.5 µM | 13.5 µM
[1] | 106 ± 18 | 104 ± 42 | 109 ± 24 | 80.8 ± 14 | 38.4 ± 4 | 6.92 ± 7.1 | 1.97 ± 6.9 | -9.67 ± 4.5
[2] | 106 ± 22 | 87.2 ± 38 | 111 ± 16 | 91.9 ± 9.9 | 42.4 ± 4.4 | 4.91 ± 8 | -0.0383 ± 6.3 | -10.8 ± 3.4
[3] | 111 ± 22 | 95.3 ± 29 | 105 ± 12 | 89.3 ± 12 | 22 ± 11 | 5.85 ± 4.9 | 4.15 ± 5.5 | -5.27 ± 4.6
[4] | 107 ± 30 | 91.5 ± 33 | 86.1 ± 17 | 32.4 ± 3.5 | 7.29 ± 8.8 | -1.02 ± 5.1 | 5.5 ± 0.64 | -4.07 ± 5.9

From the supplement of paper PMC6335503
